According to patent publication US20070015828A1 (Wyeth, priority 2005, published 2007):

Key:
Cannabinoid, CB2 (hr) = Cannabinoid, CB2 (hr) (Homo sapiens, UniProt P34972); test: Receptor binding assay: Cannabinoid CB2; settings: Test Compound @ 10 1 M
[1] = In vitro metabolism in hepatic microsomes, monkey; format: in vitro ADME; settings: male monkeys, read-out: t1/2 in hepatic microsomes
Procedure: (§1) In vitro metabolism of 1-[2-dimethylamino-1-(4-phenol)ethyl]-cis-1,4-cyclohexandiol was conducted in the hepatic microsomes of Sprague-Dawley rats, male dogs, male monkeys and mixed male and female humans to characterize metabolic stability and identification of metabolites. 1-[2-dimethylamino-1-(4-phenol)ethyl]-cis-1,4-cyclohexandiol was stable (t1/2>60 minutes) in hepatic microsomes indicating Phase I and II metabolism was minimal in all species.

pH-Solubility = format: physicochemical; settings: free base
Muscarinic, M3 (hr) = biological target: T1, Muscarinic, M3 (hr) (Homo sapiens, UniProt P20309); test: Receptor binding assay: Muscarinic M3; settings: Test Compound @ 10 1 M
T1 construct: Novascreen (contract assay)
T1 sequence (P20309 whole entry): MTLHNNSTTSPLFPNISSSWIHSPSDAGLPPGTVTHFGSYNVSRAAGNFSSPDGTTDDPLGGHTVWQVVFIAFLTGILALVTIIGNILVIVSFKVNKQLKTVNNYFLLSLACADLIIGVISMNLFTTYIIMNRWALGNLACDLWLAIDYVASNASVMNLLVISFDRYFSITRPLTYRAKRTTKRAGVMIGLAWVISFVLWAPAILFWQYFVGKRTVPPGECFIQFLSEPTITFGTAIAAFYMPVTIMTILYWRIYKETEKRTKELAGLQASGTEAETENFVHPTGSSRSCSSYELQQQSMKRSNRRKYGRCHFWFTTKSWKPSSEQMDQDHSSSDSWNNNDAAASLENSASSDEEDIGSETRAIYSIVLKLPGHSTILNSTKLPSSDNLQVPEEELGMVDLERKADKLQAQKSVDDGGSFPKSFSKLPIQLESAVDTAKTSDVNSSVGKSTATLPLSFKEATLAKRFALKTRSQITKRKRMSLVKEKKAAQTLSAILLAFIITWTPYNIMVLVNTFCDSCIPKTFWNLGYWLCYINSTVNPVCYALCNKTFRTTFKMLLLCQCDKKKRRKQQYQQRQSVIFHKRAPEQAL

Serotonin, 5HT5A (hr) = biological target: T2, Serotonin, 5HT5A (hr) (Homo sapiens, UniProt P47898); test: Receptor binding assay: Serotonin 5HT5A; settings: Test Compound @ 10 1 M
T2 construct: Novascreen (contract assay)
T2 sequence (P47898 whole entry): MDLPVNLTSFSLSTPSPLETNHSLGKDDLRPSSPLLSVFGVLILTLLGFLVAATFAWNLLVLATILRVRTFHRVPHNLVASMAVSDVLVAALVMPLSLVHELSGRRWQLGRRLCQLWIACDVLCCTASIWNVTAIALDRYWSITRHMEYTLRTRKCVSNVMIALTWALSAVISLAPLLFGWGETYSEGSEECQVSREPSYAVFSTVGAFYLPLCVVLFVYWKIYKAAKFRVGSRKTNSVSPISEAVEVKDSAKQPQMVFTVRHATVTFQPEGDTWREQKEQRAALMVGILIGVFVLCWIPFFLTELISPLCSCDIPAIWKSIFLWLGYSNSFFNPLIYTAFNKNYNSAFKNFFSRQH

rat hot plate assay = test: Rat hot plate assay (acute pain); format: in vivo; settings: up to 30 mg/kg po
[2] = In vitro metabolism in hepatic microsomes, human; format: in vitro ADME; settings: both sexes, mixed male and female humans, read-out: t1/2 in hepatic microsomes
Procedure: as §1

GABA A, Agonist site = test: Receptor binding assay: GABA A agonist site; settings: Test Compound @ 10 1 M
Glutamate, NMDA Glycine = test: Receptor binding assay: Glutamate NMDA Glycine; settings: Test Compound @ 10 1 M
Oxidase, MAO-A, Central = test: Receptor binding assay: Oxidase MAO-A central (second line); settings: Test Compound @ 10 1 M
Muscarinic, MS (hr) = biological target: T3, Muscarinic, MS (hr) (Homo sapiens, UniProt P08912); test: Receptor binding assay: Muscarinic MS; settings: Test Compound @ 10 1 M
T3 construct: Novascreen (contract assay)
T3 sequence (P08912 whole entry): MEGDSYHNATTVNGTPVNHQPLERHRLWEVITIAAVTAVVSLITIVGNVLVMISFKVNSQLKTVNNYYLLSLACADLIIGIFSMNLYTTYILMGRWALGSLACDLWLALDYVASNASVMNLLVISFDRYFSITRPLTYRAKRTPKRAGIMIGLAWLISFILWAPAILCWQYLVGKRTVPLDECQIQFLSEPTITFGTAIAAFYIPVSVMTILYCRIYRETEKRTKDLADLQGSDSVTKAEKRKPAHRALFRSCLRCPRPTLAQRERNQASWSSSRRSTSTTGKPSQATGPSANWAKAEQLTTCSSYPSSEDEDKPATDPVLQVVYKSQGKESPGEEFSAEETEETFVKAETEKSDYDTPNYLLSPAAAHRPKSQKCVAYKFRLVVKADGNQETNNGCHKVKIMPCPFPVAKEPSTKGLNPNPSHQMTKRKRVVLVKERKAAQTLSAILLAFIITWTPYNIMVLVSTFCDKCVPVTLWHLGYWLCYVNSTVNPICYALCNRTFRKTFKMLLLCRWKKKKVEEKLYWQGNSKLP

Adrenergic, Alpha 1A = biological target: T4, Adrenergic, Alpha 1A (Rattus norvegicus, UniProt P43140); test: Receptor binding assay: Adrenergic Alpha 1A; settings: Test Compound @ 10 1 M
T4 construct: Novascreen (assay provider)
T4 sequence (P43140 whole entry): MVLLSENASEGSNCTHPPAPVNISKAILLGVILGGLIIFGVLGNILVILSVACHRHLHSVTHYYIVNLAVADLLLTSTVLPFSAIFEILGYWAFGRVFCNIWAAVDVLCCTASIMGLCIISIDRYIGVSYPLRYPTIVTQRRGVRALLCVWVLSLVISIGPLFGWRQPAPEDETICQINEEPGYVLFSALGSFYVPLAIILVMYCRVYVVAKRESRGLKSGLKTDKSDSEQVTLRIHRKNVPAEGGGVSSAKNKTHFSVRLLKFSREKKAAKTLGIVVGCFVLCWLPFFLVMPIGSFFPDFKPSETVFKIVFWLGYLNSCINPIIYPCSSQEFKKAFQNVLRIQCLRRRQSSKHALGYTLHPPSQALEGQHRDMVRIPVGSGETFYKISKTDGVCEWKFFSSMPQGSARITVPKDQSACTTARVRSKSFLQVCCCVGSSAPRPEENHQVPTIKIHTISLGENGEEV

Imidazoline, I1 = test: Imidazoline binding assay: I1; settings: Test Compound @ 10 1 M
Opiate, Delta 2 (hr) = biological target: T5, Opiate, Delta 2 (hr) (Homo sapiens, UniProt P41143); test: Receptor binding assay: Opiate Delta 2; settings: Test Compound @ 10 1 M
T5 construct: Novascreen (contract assay)
T5 sequence (P41143 whole entry): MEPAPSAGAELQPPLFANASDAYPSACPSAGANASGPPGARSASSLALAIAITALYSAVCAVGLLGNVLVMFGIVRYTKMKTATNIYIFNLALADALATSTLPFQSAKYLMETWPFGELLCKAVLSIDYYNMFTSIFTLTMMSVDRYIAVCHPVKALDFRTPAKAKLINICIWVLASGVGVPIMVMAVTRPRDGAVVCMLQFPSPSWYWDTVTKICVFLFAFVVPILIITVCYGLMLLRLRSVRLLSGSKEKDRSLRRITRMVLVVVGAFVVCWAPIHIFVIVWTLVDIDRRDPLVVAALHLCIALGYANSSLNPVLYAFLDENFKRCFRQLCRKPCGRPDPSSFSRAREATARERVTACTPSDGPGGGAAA

[3] = test system: Glutamate, NMDA agonist Site; test: Receptor binding assay: Glutamate NMDA agonist site; settings: Test Compound @ 10 1 M
Hygroscopicity = format: physicochemical
Muscarinic, M1 (hr) = biological target: T6, Muscarinic, M1 (hr) (Homo sapiens, UniProt P11229); test: Receptor binding assay: Muscarinic M1; settings: Test Compound @ 10 1 M
T6 construct: Novascreen (contract assay)
T6 sequence (P11229 whole entry): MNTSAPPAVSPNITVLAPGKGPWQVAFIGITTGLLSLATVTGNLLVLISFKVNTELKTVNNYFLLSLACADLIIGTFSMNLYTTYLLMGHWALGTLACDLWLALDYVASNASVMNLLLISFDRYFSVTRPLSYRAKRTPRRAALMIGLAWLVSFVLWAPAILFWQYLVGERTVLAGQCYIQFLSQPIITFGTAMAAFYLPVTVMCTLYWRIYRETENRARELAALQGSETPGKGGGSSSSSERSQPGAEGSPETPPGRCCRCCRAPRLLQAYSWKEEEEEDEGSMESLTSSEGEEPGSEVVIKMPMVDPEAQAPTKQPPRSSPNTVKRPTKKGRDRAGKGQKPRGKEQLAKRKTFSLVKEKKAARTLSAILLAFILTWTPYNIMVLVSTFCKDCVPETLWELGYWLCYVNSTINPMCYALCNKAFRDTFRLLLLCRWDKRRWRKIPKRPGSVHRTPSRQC

Glutamate, Kainate Site = test: Receptor binding assay: Glutamate Kainate site; settings: Test Compound @ 10 1 M
Pharmacokinetics in dog = format: in vivo; settings: plasma, male dogs
Procedure: Preclinical pharmacokinetics of 1-[2-dimethylamino-1-(4-phenol)ethyl]-cis-1,4-cyclohexandiol was determined after a single 2.5 mg/kg IV bolus and 7.5 mg/kg oral dose in male dogs. […] The oral bioavailability was high (60%).

Dopamine, D1 (hr) = Dopamine, D1 (hr) (Homo sapiens, UniProt P21728); test: Receptor binding assay: Dopamine D1; settings: Test Compound @ 10 1 M
Dopamine, D1 (hr), sequence (P21728 whole entry): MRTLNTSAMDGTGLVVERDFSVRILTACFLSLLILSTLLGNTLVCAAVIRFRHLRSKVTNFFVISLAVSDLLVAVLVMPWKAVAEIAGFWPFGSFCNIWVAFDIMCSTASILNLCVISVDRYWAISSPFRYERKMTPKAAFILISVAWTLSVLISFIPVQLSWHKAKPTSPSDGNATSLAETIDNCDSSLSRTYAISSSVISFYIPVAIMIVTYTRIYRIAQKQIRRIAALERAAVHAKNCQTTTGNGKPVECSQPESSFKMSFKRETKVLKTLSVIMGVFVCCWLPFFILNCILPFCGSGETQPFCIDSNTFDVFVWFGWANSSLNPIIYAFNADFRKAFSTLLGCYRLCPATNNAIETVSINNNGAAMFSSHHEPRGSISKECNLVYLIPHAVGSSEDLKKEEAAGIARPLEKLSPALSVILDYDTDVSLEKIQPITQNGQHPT

[4] = test system: Glycine, Strychnine-sensitive; test: Receptor binding assay: Glycine strychnine-sensitive; settings: Test Compound @ 10 1 M
cortical 5-HT = test: Microdialysis study, rat dorsal lateral frontal cortex; format: in vivo; settings: male Sprague-Dawley rats, 30 mg/kg, combined with 5-HT1A antagonist WAY-100635 (0.3 mg/kg, s.c.) given 20 min before
Procedure: 1-[2-dimethylamino-1-(4-phenol)ethyl]-cis-1,4-cyclohexandiol was evaluated in a microdialysis study conducted in male Sprague-Dawley rats [M T Taber et al, Differential effects of coadministration of fluoxetine and WAY-100635 on serotonergic neurotransmission in vivo: sensitivity to sequence of injections, Synapse, 2000 October; 38(1):17-26.] This technique can capture the neurochemical effects of compounds in the brains of freely-moving rodents. The effects of 1-[2-dimethylamino-1-(4-phenol)ethyl]-cis-1,4-cyclohexandiol were studied in the rat dorsal lateral frontal cortex, a brain region thought to be involved in etiology and/or treatment of depression. To see whether any effects on serotonin could be observed, the compound (30 mg/kg, sc) was tested in combination with the selective 5-HT1A antagonist, N-[2-[4-(2-methoxyphenyl)-1-piperazinyl] ethyl]-N-(2-pyridinyl)cyclohexanecarboxamide (WAY-100635). […]
• 24 hr post-operative recovery • 3 hr equilibration after probe insertion • 1 hr 40 min baseline • 5-HT1A antagonist N-[2-[4-(2-methoxyphenyl)-1-piperazinyl]ethyl]-N-(2-pyridinyl)cyclohexanecarboxamide [WAY-100635] (0.3 mg/kg, s.c.) given 20 min before 1-[2-dimethylamino-1-(4-phenol)ethyl]-cis-1,4-cyclohexandiol (30 mg/kg, […]) Sample Collection: Samples collected for 3 hr 2 min post-injections Analysis: 5-HT levels quantified by HPLC-ECD

Serotonin, 5HT4 = test: Receptor binding assay: Serotonin 5HT4; settings: Test Compound @ 10 1 M
Adenosine A1 = test: Receptor binding assay: Adenosine A1; settings: Test Compound @ 10 1 M
Adrenergic, Alpha 2A (h) = biological target: T7, Adrenergic, Alpha 2A (h) (Homo sapiens, UniProt P08913); test: Receptor binding assay: Adrenergic Alpha 2A; settings: Test Compound @ 10 1 M
T7 construct: Novascreen (assay provider)
T7 sequence (P08913 whole entry): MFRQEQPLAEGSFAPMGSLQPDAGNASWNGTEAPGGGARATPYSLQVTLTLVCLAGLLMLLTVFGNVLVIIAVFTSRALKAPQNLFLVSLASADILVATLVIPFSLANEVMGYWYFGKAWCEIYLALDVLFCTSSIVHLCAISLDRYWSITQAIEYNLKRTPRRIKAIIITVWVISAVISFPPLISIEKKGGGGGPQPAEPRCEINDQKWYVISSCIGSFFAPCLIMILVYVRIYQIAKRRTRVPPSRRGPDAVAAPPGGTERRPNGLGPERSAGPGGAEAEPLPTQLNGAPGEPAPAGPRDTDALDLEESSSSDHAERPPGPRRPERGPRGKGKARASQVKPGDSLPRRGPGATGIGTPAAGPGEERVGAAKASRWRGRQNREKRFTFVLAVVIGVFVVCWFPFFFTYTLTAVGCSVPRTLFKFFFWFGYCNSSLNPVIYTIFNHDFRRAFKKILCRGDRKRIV

Muscarinic, M4 (hr) = biological target: T8, Muscarinic, M4 (hr) (Homo sapiens, UniProt P08173); test: Receptor binding assay: Muscarinic M4; settings: Test Compound @ 10 1 M
T8 construct: Novascreen (contract assay)
T8 sequence (P08173 whole entry): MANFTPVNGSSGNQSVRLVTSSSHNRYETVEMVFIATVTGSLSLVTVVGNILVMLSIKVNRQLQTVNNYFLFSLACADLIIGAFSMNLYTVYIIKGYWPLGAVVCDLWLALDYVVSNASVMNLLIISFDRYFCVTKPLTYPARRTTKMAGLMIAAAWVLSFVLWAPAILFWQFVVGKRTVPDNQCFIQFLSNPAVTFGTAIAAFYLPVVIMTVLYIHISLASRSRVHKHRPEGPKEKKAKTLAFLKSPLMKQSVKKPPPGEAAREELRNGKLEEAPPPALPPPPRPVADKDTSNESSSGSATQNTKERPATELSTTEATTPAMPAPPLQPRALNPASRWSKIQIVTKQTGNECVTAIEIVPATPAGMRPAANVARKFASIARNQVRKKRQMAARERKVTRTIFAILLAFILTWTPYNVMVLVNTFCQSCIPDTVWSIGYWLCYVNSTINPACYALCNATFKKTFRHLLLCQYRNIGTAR

[5] = test system: Nicotinic (a-bungarotoxin insens); format: binding; settings: Test Compound @ 10 1 M

Cannabinoid, CB2 (hr), sequence (P34972 whole entry): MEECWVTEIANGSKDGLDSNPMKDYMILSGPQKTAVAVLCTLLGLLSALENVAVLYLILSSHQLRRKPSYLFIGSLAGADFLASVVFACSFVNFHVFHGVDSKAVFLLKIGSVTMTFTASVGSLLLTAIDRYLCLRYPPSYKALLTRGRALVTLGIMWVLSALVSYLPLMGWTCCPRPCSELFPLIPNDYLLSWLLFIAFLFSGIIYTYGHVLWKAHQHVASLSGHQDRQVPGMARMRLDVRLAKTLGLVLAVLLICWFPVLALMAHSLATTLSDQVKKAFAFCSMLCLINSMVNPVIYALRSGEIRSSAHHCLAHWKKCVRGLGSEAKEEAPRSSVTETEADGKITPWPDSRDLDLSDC

## CN(C)CC(c1ccc(O)cc1)C1(O)CCC(O)CC1 (stereo not drawn) [1-[2-dimethylamino-1-(4-phenol)ethyl]-cis-1,4-cyclohexandiol]
Cannabinoid, CB2 (hr)
  inhibition at 10 µM: 15.7%
[1]
  half-life: > 1 h
pH-Solubility; Final pH 1.4
  pH-Solubility: Final pH 1.4 24.2 mg/ml
pH-Solubility; Final pH 3.99
  pH-Solubility: Final pH 3.99 24.1 mg/ml
pH-Solubility; Final pH 5.79
  pH-Solubility: Final pH 5.79 26.7 mg/ml
pH-Solubility; Final pH 8.4
  pH-Solubility: Final pH 8.4 22.7 mg/ml
Muscarinic, M3 (hr)
  inhibition at 10 µM: 0.11%
Serotonin, 5HT5A (hr)
  inhibition at 10 µM: 19.9%
Rat hot plate assay
  effect on acute pain: not found to affect acute pain
[2]
  half-life: > 1 h
GABA A, Agonist site
  Receptor Binding % Inhibition: −16.06%
Glutamate, NMDA Glycine
  Receptor Binding % Inhibition: 2.24%
Oxidase, MAO-A, Central
  Receptor Binding % Inhibition: 2.43%
Muscarinic, MS (hr)
  inhibition at 10 µM: 5.4%
Adrenergic, Alpha 1A
  inhibition at 10 µM: -1.96%
Imidazoline, I1
  Receptor Binding % Inhibition: 17.43%
Opiate, Delta 2 (hr)
  inhibition at 10 µM: 12.2%
[3]
  Receptor Binding % Inhibition: −2.99%
Hygroscopicity
  Hygroscopicity: Non-hygroscopic
Hygroscopicity; at 26.30C/90% RH, weight gain is lost upon reduction in % RH
  Hygroscopicity, weight gain: < 2%
Muscarinic, M1 (hr)
  inhibition at 10 µM: -5.96%
Glutamate, Kainate Site
  Receptor Binding % Inhibition: −0.51%
Pharmacokinetics in dog; 7.5 mg/kg oral vs 2.5 mg/kg IV
  bioavailability: 60%
Pharmacokinetics in dog; single 2.5 mg/kg IV bolus
  clearance: ~7 mL/min/kg
Pharmacokinetics in dog; single 2.5 mg/kg IV bolus, read-out: apparent terminal half-life (t1/2) (converted)
  half-life: 5.6 h
Pharmacokinetics in dog; single 2.5 mg/kg IV bolus, read-out: apparent volume of distribution (VSS)
  Vd: 1.9 L/kg
Pharmacokinetics in dog; single oral dose of 7.5 mg/kg, read-out: terminal oral half-life (converted)
  half-life: 6 h
Dopamine, D1 (hr)
  inhibition at 10 µM: -5.73%
[4]
  Receptor Binding % Inhibition: −2.38%
Cortical 5-HT
  cortical 5-HT levels: Robust elevations
Serotonin, 5HT4
  Receptor Binding % Inhibition: 3.98%
Adenosine A1
  Receptor Binding % Inhibition: −8.51%
Adrenergic, Alpha 2A (h)
  inhibition at 10 µM: 10.4%
Muscarinic, M4 (hr)
  inhibition at 10 µM: -3.52%
[5]
  Receptor Binding % Inhibition: −1.07%
